Data published in patent US20130029936A1, “Inclusion Compounds of Fumagillol Derivative or its Salt, and Pharmaceutical Compositions Comprising the Same” (priority 2002, published 2013).
≈ marks a conversion by molar mass, not a printed value.

Legend:
[1] = Solubility in hydroxypropyl-β-cyclodextrin solution (HPLC of filtrate); assay type: physicochemical; details: 4° C., 72 hr
Procedure: (§1) O-(4-dimethylaminoethoxycinnamoyl)fumagillol (30 mg) was added to 1.5, 3.5, 7.0, 14.0, 28.0 w/v % hydroxypropyl-β-cyclodextrin solution, respectively, and stirred at 4° C. After 72 hr, the mixture was filtered with 0.2 μm membrabe filter and O-(4-dimethylaminoethoxycinnamoyl)fumagillol in the filtrate was determined by high pressure liquid chromatography (HPLC). The solubility of O-(4-dimethylamino ethoxycinnamoyl)fumagillol as a function of the hydroxypropyl-β-cyclodextrin concentration was represented in Table 1.
(§2) O-(3,4,5-trimethoxycinnamoyl)fumagillol (20 mg) was added to 1.5, 3.5, 7.0, 14.0, 28.0 w/v % hydroxypropyl-β-cyclodextrin solution, respectively, and stirred at 4° C. After 72 hr, the mixture was filtered with 0.2 μm membrabe filter and O-(3,4,5-trimethoxycinnamoyl)fumagillol in the filtrate was determined by high pressure liquid chromatography (HPLC). The solubility of O-(3,4,5-trimethoxycinnamoyl)fumagillol as a function of the hydroxypropyl-β-cyclodextrin concentration was shown in Table 3.

[2] = as above; assay type: physicochemical
[3] = Solubility in sulfobutylether-7-β-cyclodextrin solution (HPLC of filtrate); assay type: physicochemical; details: 4° C., 72 hr
Procedure: as §1, with “% sulfobutylether-7-β-cyclodextrin” for “% hydroxypropyl-β-cyclodextrin”, “of O-(4-dimethylaminoethoxycinnamoyl)fumagillol” for “of O-(4-dimethylamino ethoxycinnamoyl)fumagillol”, “the sulfobutylether-7-β-cyclodextrin” for “the hydroxypropyl-β-cyclodextrin”, “Table 2.” for “Table 1.”
as §2, with “% sulfobutylether-7-β-cyclodextrin” for “% hydroxypropyl-β-cyclodextrin”, “the sulfobutyletyher-7-β-cyclodextrin” for “the hydroxypropyl-β-cyclodextrin”, “Table 4.” for “Table 3.”

[4] = Stability of lyophilized powders under storage at 25° C. (residual amount by HPLC); assay type: physicochemical
Procedure: The stability of the lyophilized powders obtained in Example 6 was compared with that of O-(4-dimethylaminoethoxycinnamoyl)fumagillol alone under storage at 25° C. The residual amount of O-(4-dimethylaminoethoxycinnamoyl)fumagillol was determined by HPLC.
The stability of the lyophilized powders obtained in Example 7 was compared with that of O-(3,4,5-trimethoxycinnamoyl)fumagillol alone at 25° C. The residual amount of O-(3,4,5-trimethoxycinnamoyl)fumagillol was determined by HPLC.

Lewis lung carcinoma = experiment: Tumor growth inhibition, subcutaneously implanted Lewis lung carcinoma; assay type: in vivo; details: BDF1 mice
Procedure: Pre-prepared tumor mass (Lewis lung carcinoma) of 8 mm^3 was subcutaneously implanted into the right axillary region of BDF1 mice (4 weeks). When the tumor size was 100-200 mm^3, mice were divided randomly into treatment group and control group. The treatment group was administered subcutaneously with O-(4-ethylaminoethoxycinnamoyl)fumagillol or the complex of O-(4-ethylaminoethoxycinnamoyl)fumagillol with hydroxypropyl-β-cyclodextrin at a dose of 30 mg/kg or 120 mg/kg as O-(4-ethylaminoethoxycinnamoyl)fumagillol every other day for 5 injections, while the control group was given injections of 0.2 ml of phosphate buffered saline. The tumors were weighed on the final day, and tumor volume was calculated using the following equation:
Tumor volume (mm^3)=a×b^2×0.5
(a: the longest diameter, b: the shortest diatheter) Inhibition ratio (IR %) of the treatment group relative to the untreated control group was calculated using the following equation:
=(1−Tumor volume of Treatment group/Tumor volume of Control group)×100
=(1−Tumor weight of Treatment group/Tumor weight of Control group)×100

[5] = Solubility evaluation with cosolvents and surfactants; assay type: physicochemical
From the text: However, these formulations have a number of disadvantages, which are the inability to guarantee the long-term stability due to facile hydrolysis in solution state, the inability to be buffered due to increased sensitivity to ions resulting in precipitation and further, the toxicity of the surfactants.

[6] = Stability (hydrolysis) in acidic, neutral and basic solutions at 50° C. with hydroxypropyl-β-cyclodextrin; assay type: physicochemical
Procedure: The stability of O-(4-dimethylaminoethoxycinnamoyl)fumagillol was investigated in the presence of various concentrations of hydroxypropyl-β-cyclodextrin in acidic, neutral and basic solutions at 50° C. The residual amount of O-(4-dimethylaminoethoxycinnamoyl)fumagillol in each solution was determined by HPLC.

[7] = Solubility in phosphate buffer (pH 6.7) containing hydroxypropyl-β-cyclodextrin; assay type: physicochemical; details: 4° C., 72 hr
Procedure: O-(4-dimethylaminoethoxycinnamoyl)fumagillol (50 mg) was added to phosphate buffer (pH 6.7) containing 1.5, 3.5, 7.0 and 14.0 w/v % hydroxypropyl-β-cyclodextrin, respectively, and stirred at 4° C. After 72 hr, the mixture was filtered with 0.2 μm membrabe filter and O-(4-dimethylaminoethoxycinnamoyl)fumagillol in the filtrate was determined by high pressure liquid chromatography (HPLC). The solubility of O-(4-dimethylaminoethoxycinnamoyl)fumagillol as a function of the hydroxypropyl-β-cyclodextrin concentration was shown in Table 5.

[8] = cited from earlier work
[9] = 1.5 w/v % hydroxypropyl-β-cyclodextrin
[10] = 3.5 w/v % hydroxypropyl-β-cyclodextrin
[11] = 14.0 w/v % hydroxypropyl-β-cyclodextrin
[12] = 28.0 w/v % hydroxypropyl-β-cyclodextrin
[13] = 0 w/v % hydroxypropyl-β-cyclodextrin, 4° C., 72 hr
[14] = 0 w/v % sulfobutylether-7-β-cyclodextrin
[15] = 1.5 w/v % sulfobutylether-7-β-cyclodextrin
[16] = 3.5 w/v % sulfobutylether-7-β-cyclodextrin
[17] = 14.0 w/v % sulfobutylether-7-β-cyclodextrin
[18] = 28.0 w/v % sulfobutylether-7-β-cyclodextrin
[19] = Total Dose 150 mg/kg (30 mg/kg subcutaneously every other day, 5 injections)
[20] = Total Dose 600 mg/kg (120 mg/kg subcutaneously every other day, 5 injections)
[21] = Acidic (pH 3.2), 2 w/v % hydroxypropyl-β-cyclodextrin
[22] = Acidic (pH 3.2), 5 w/v % hydroxypropyl-β-cyclodextrin
[23] = Acidic (pH 3.2), 10 w/v % hydroxypropyl-β-cyclodextrin
[24] = Acidic (pH 3.2), 20 w/v % hydroxypropyl-β-cyclodextrin
[25] = Basic (pH 11.5), 2 w/v % hydroxypropyl-β-cyclodextrin
[26] = Basic (pH 11.5), 5 w/v % hydroxypropyl-β-cyclodextrin
[27] = Basic (pH 11.5), 10 w/v % hydroxypropyl-β-cyclodextrin
[28] = Basic (pH 11.5), 20 w/v % hydroxypropyl-β-cyclodextrin
[29] = Neutral (pH 7.2), 2 w/v % hydroxypropyl-β-cyclodextrin
[30] = Neutral (pH 7.2), 5 w/v % hydroxypropyl-β-cyclodextrin
[31] = Neutral (pH 7.2), 10 w/v % hydroxypropyl-β-cyclodextrin
[32] = Neutral (pH 7.2), 20 w/v % hydroxypropyl-β-cyclodextrin

COc1cc(C=CC(=O)OC2CCC3(CO3)C(C3(C)OC3CC=C(C)C)C2OC)cc(OC)c1OC (centres unmarked) [O-(3,4,5-trimethoxycinnamoyl)fumagillol]
Solubility [1, 9]: 430 µg/mL (≈ 0.856 mM)
Solubility [1, 10]: 1520 µg/mL (≈ 3.02 mM)
Solubility ([1]; 7.0 w/v % hydroxypropyl-β-cyclodextrin): 3540 µg/mL (≈ 7.04 mM)
Solubility [1, 11]: 6720 µg/mL (≈ 13.4 mM)
Solubility [1, 12]: 12020 µg/mL (≈ 23.9 mM)
Solubility [2, 13]: 2 µg/mL (≈ 0.00398 mM)
Solubility [3, 14]: 2 µg/mL (≈ 0.00398 mM)
Solubility [3, 15]: 580 µg/mL (≈ 1.15 mM)
Solubility [3, 16]: 1380 µg/mL (≈ 2.75 mM)
Solubility ([3]; 7.0 w/v % sulfobutylether-7-β-cyclodextrin): 2750 µg/mL (≈ 5.47 mM)
Solubility [3, 17]: 5690 µg/mL (≈ 11.3 mM)
Solubility [3, 18]: 11670 µg/mL (≈ 23.2 mM)
Residual amount of O-(3,4,5-trimethoxycinnamoyl)fumagillol (%) after 1 month ([4]; 25° C., after 1 month): 65.3%

CO[C@@H]1[C@H](OC(=O)C=Cc2ccc(OCCN(C)C)cc2)CC[C@]2(CO2)[C@H]1[C@@]1(C)O[C@@H]1CC=C(C)C [O-(4-dimethylaminoethoxycinnamoyl)fumagillol]
Solubility [1, 9]: 1030 µg/mL (≈ 2.06 mM)
Solubility [1, 10]: 2930 µg/mL (≈ 5.86 mM)
Solubility [1, 11]: 11540 µg/mL (≈ 23.1 mM)
Solubility [1, 12]: 22640 µg/mL (≈ 45.3 mM)
Inhibition Ratio (%), Tumor Tissue Volume (Lewis lung carcinoma; [19]): 37.7%
Inhibition Ratio (%), Tumor Tissue Weight (Lewis lung carcinoma; [19]): 33.6%
Inhibition Ratio (%), Tumor Tissue Volume (Lewis lung carcinoma; [20]): 63.3%
Inhibition Ratio (%), Tumor Tissue Weight (Lewis lung carcinoma; [20]): 71.4%
Solubility ([5]; aqueous formulation containing 10% Cremophor-EL alone): about 5 mg/ml
Solubility ([5]; aqueous formulation containing a mixture of 10% ethanol and 10% Tween 80): about 5 mg/ml
Solubility [2, 13]: 50 µg/mL (≈ 0.1 mM)
increase of aqueous solubility ([2]; depending the pH and the concentration of hydroxypropyl-β-cyclodextrin or sulfobutylether-7-β-cyclodextrin): 20-1000 fold
Solubility ([2]; in water): 50 µg/mL (≈ 0.1 mM)
kobs (Hydrolysis Rate Constant) ([6]; Acidic (pH 3.2), 0 w/v % hydroxypropyl-β-cyclodextrin): 0.2042 h⁻¹
Inhibition ratio (%) [6, 21]: 52.20%
kobs (Hydrolysis Rate Constant) [6, 21]: 0.0976 h⁻¹
Inhibition ratio (%) [6, 22]: 58.47%
kobs (Hydrolysis Rate Constant) [6, 22]: 0.0848 h⁻¹
Inhibition ratio (%) [6, 23]: 63.08%
kobs (Hydrolysis Rate Constant) [6, 23]: 0.0754 h⁻¹
Inhibition ratio (%) [6, 24]: 67.43%
kobs (Hydrolysis Rate Constant) [6, 24]: 0.0665 h⁻¹
kobs (Hydrolysis Rate Constant) ([6]; Basic (pH 11.5), 0 w/v % hydroxypropyl-β-cyclodextrin): 0.0918 h⁻¹
Inhibition ratio (%) [6, 25]: 5.00%
kobs (Hydrolysis Rate Constant) [6, 25]: 0.0816 h⁻¹
Inhibition ratio (%) [6, 26]: 16.55%
kobs (Hydrolysis Rate Constant) [6, 26]: 0.0580 h⁻¹
Inhibition ratio (%) [6, 27]: 22.77%
kobs (Hydrolysis Rate Constant) [6, 27]: 0.0453 h⁻¹
Inhibition ratio (%) [6, 28]: 30.56%
kobs (Hydrolysis Rate Constant) [6, 28]: 0.0294 h⁻¹
kobs (Hydrolysis Rate Constant) ([6]; Neutral (pH 7.2), 0 w/v % hydroxypropyl-β-cyclodextrin): 0.0162 h⁻¹
Inhibition ratio (%) [6, 29]: 12.96%
kobs (Hydrolysis Rate Constant) [6, 29]: 0.0141 h⁻¹
Inhibition ratio (%) [6, 30]: 15.43%
kobs (Hydrolysis Rate Constant) [6, 30]: 0.0137 h⁻¹
Inhibition ratio (%) [6, 31]: 24.96%
kobs (Hydrolysis Rate Constant) [6, 31]: 0.0122 h⁻¹
Inhibition ratio (%) [6, 32]: 29.01%
kobs (Hydrolysis Rate Constant) [6, 32]: 0.0115 h⁻¹
Solubility [3, 14]: 50 µg/mL (≈ 0.1 mM)
Solubility [3, 15]: 870 µg/mL (≈ 1.74 mM)
Solubility [3, 16]: 2240 µg/mL (≈ 4.48 mM)
Solubility [3, 17]: 10430 µg/mL (≈ 20.9 mM)
Solubility [3, 18]: 21300 µg/mL (≈ 42.6 mM)
Residual amount of O-(4-dimethylaminoethoxycinnamoyl)fumagillol (%) after 1 month ([4]; storage at 25° C., after 1 month): 72.8%
Residual amount of O-(4-dimethylaminoethoxycinnamoyl)fumagillol (%) after 3 month ([4]; storage at 25° C., after 3 month): 54.3%
Solubility ([7]; phosphate buffer pH 6.7, 0 w/v % hydroxypropyl-β-cyclodextrin): 2380 µg/mL (≈ 4.76 mM)
Solubility ([7]; phosphate buffer pH 6.7, 1.5 w/v % hydroxypropyl-β-cyclodextrin): 4240 µg/mL (≈ 8.49 mM)
Solubility ([7]; phosphate buffer pH 6.7, 3.5 w/v % hydroxypropyl-β-cyclodextrin): 9860 µg/mL (≈ 19.7 mM)
Solubility ([7]; phosphate buffer pH 6.7, 7.0 w/v % hydroxypropyl-β-cyclodextrin): 17590 µg/mL (≈ 35.2 mM)

OC[C@H]1O[C@@H]2O[C@H]3[C@H](O)[C@@H](O)[C@@H](O[C@H]4[C@H](O)[C@@H](O)[C@@H](O[C@H]5[C@H](O)[C@@H](O)[C@@H](O[C@H]6[C@H](O)[C@@H](O)[C@@H](O[C@H]7[C@H](O)[C@@H](O)[C@@H](O[C@H]8[C@H](O)[C@@H](O)[C@@H](O[C@H]1[C@H](O)[C@H]2O)O[C@@H]8CO)O[C@@H]7CO)O[C@@H]6CO)O[C@@H]5CO)O[C@@H]4CO)O[C@@H]3CO [β-cyclodextrin]
aqueous solubility [8]: 1.8 g per 100 ml of water
